Data on 40 compounds can be found in ChEMBL document CHEMBL2040799, “Exploring the Requirements for the Hydrophobic Scaffold and Polar Amine in inhibitors of M2 from Influenza A Virus” (ACS Med Chem Lett, 2011).

Assay [1] in a line: Inhibition of Influenza A Virus M2 proton channel expressed in Xenopus laevis oocytes after 2 mins by two-electrode […] assay. It counts as cell-based. The settings on record: Oocyte. For orientation: Patch clamp records ionic current or voltage across a cell membrane.
Assay [2] concerns Oocyte. Kind of assay: Inhibition of Influenza A Virus M2 proton channel expressed in Xenopus laevis oocytes at 100 uM after 2 mins by two-electrode […] assay. It counts as cell-based.

Consider `NC12CC3CCC(CC(C3)C1)C2`, for which it took 24 µM to reach half-maximal inhibition in assay [1] (IC50). The compound further had an inhibition in assay [2] of 81%.

As to `NC12CC3CC(C1)CC(CO)(C3)O2`, in assay [2], the inhibition was determined as 13%.

Compound `OC1CCC(C2CC3CCC2C3)CC1O` (stereo not given) gave an inhibition in assay [2] of 80%.

Compound `N=C(NO)C12CC3CC(CC(C3)C1)C2` came in with an inhibition in assay [2] of 72%.

For `CC1(C)C(N)C1(C)C`, the inhibition in assay [2] stood at 28%. `C1CC2CCC1CNC2` showed an inhibition in assay [2] of 75%.

`C1CC2CC1C1CNCC21` (stereo not given) displayed an inhibition in assay [2] of 74%. In the case of `NC12CC3CC(C1)CC(O)(C3)C2`, the inhibition in assay [2] turned out to be 5%. Still for that read-out and setting: under `N=C(N)NC(=N)NC12CC3CC(CC(C3)C1)C2` stands 70%. In assay [1], `CC1(O)C2CC3CC(C2)CC1C3` (stereo not given) yielded a concentration for half-maximal inhibition (IC50) of 14 µM. Moreover, the inhibition in assay [2] amounted to 86%. In assay [1], `CC(C)(C)CC(C)(C)N` yielded an IC50 of 21 µM. In assay [2], this compound returned an inhibition of 87%. On to `NOC12CC3CC(CC(C3)C1)C2`, for which the inhibition in assay [2] stood at 87%. In assay [2], `OC1C2C3CC4C2C(O)C2C1C3C42` (stereo not given) displayed an inhibition of 76%.

In assay [2], `NC(=O)C12CC3CC(CC(C3)C1)C2` yielded an inhibition of 75%.

Consider `NC1Cc2ccccc2C1`, for which, in assay [2], the inhibition is 6%.

Turning to `N=C(N)C12CC3CC(CC(C3)C1)C2`, half-maximal inhibition in assay [1] (IC50) was put at 4 µM. The inhibition in assay [2] stood at 95%. For `O=C1C2CC3CC(C2)CC1C3`, in that order: 29 µM and 69%.

Compound `NC1C2CC3CC(C2)CC1C3` (stereo not given) gave an inhibition in assay [2] of 92%.

For the compound `C1CCC2(CC1)CCNCC2`, half-maximal inhibition in assay [1] (IC50) required 1 µM. The compound also showed an inhibition in assay [2] of 95%. For `NN1CCC2(CCCCC2)CC1` the same measures were 7 µM and 96%. For `NC(CO)C12CC3CC(CC(C3)C1)C2` (stereo not given) the same measures were 16 µM and 90%. In turn, `C1CC2CC1C1CNC21` (stereo not given) showed an inhibition in assay [2] of 45%.

On to `O=C1CC2(CCCCC2)CC(=O)N1`, for which, in assay [2], the inhibition was 35%. `C1NC2CC3CC1CC(C3)C2` gave an inhibition in assay [2] of 84%. Take `NNC1CCC2(CCCCC2)CC1`: in assay [1], the IC50 came out at 31 µM. Also, in assay [2], the inhibition amounted to 79%. The compound `OC1CC2C3CCC(C3)C2C1O` (stereo not given) registered an inhibition in assay [2] of 50%.

Take `NC1CC2CC1C1CCCC21` (stereo not given): the IC50 in assay [1] was 9 µM. In assay [2], this compound returned an inhibition of 94%. For `OC12CC3CC(CC(C3)C1)C2`, in that order: 20 µM and 85%. Compound `NC1C2C3CC4C1C1C2CC3C41` (stereo not given) yielded a 50% inhibitory concentration (IC50) in assay [1] of 8 µM. Further, the inhibition in assay [2] was 96%. `NC1CCC2(CCCCC2)CC1` returned an inhibition in assay [2] of 89%. In assay [2], `NC12CC3CC(CC(C3)C1)C2` displayed an inhibition of 91%. Consider `CC12CC3(O)CC1(C)CC3(O)C2`, for which the inhibition in assay [2] was 40%. For `NC12CCC3CC(CC(C3)C1)C2`, in assay [1], half-maximal inhibition (IC50) required 29 µM. The same compound registered an inhibition in assay [2] of 92%. For `N=C(N)NC12CC3CC(CC(C3)C1)C2`, in that order: 15 µM and 97%. `O=S(=O)(O)C12CC3CC(CC(C3)C1)C2` showed an inhibition in assay [2] of 3%. Consider `NN1C(=O)CC2(CCCCC2)CC1=O`, for which, in assay [2], the inhibition amounted to 29%.

Turning to `NC1C2C3CC4C2C(O)C2C1C3C42` (stereo not given), the IC50 in assay [1] was 24 µM. The inhibition in assay [2] is 86%. In the case of `N=C(N)NCC12CC3CCC(CC(C3)C1)C2`, the inhibition in assay [2] came to 90%. For the compound `OC1C2C3CC4C1C1C2CC3C41` (stereo not given), the inhibition in assay [2] was determined as 57%. `CC(C)(C)c1ccc(CN)cc1`: in assay [2], the inhibition turned out to be 40%.

By IC50 is commonly meant the point on the concentration scale where inhibition reaches its midpoint. Low values mean greater potency, high ones weaker potency. The term inhibition denotes the relative decrease from the control value, in per cent. High values mean strong suppression, low ones little suppression.
